Assay results from patent US20100069323A1, “COMPOSITION FOR APPLICATION TO SKIN OR MUCOSA” (priority 2006, published 2010).

Test system: rabbit corneal epithelial cell line SIRC
Assay: Evaluation of cytotoxicity of prepared alginic acid (Cell Counting Kit-8 viable cell detection)
Type: cell-based
Protocol: The test for toxicity of the alginic acid prepared above (Example 1 and Comparative Examples 1 and 2) to cells was carried out. First, an alginic acid solution was prepared by dissolving each alginic acid to a concentration of 0.2 or 2.0% (w/v) in a cell culture medium of medium 199 (GIBCO) supplemented with 10% (v/v) fetal bovine serum (Daiichi Kagaku Yakuhin). Then, rabbit corneal epithelial cell line SIRC (ATCC number: CCL-60) was plated at 2.0×10^5 cells/well in 48-well microtiter plate (Corning), and alginic acid solution prepared above was added to obtain a final concentration of 0.1 or 1.0% (w/v) of alginic acid, and the cells were subsequently cultured under the condition of 37° C., 5% CO2 and 90% relative humidity. […] After 1 hour, the absorbance (450 nm) of the dye developed by reacting with the viable cells was measured using a spectrophotometer (Thermo Electron). With the observed value of the absorbance, cell viability was calculated in the following equation, and the cytotoxicity of each alginic acid was evaluated.
Cell viability(%)=100×(absorbance of the group in which each alginic acid solution was added−absorbance of the medium containing a reagent for viable cell detection)/(absorbance of the control group−absorbance of the medium containing a reagent for viable cell detection) Equation 5

With alginic acid [Comparative Example 2] the Cell viability was “about 5%” and the “microscopic observation of cells” value was “lost their adhesive capacity and floated”.
